pIC50: −log10 of the molar value. Where two headings read alike, the source gives them in different places. A value given as a limit tells only on which side of the number the result lay.

Common to all, as to assay: MTT cell proliferation/cytotoxicity assay
What all share (assay type): cell-based, canine
Holding throughout (settings): Canis lupus familiaris, read-out: Half-Maximal Inhibitory Concentration (IC50)

One assay relates to CMGT071020 cells. As for the experimental part:
(§1) The cytotoxic effects of the three BZOP derivatives were studied via the 3-(4,5-Dimethyl-2-thiazolyl)-2,5-diphenyl-2H-tetrazolium bromide (MTT) assay. The REM134, CMGT071020, and MDCK cell lines were seeded at a density of 5 × 10^3 cells/well in 96-well plates and allowed to grow for 24 h. They were then treated with the three BZOP derivatives at various concentrations (0–300 µM) for 24 or 48 h, whereas cells treated with the culture medium containing 0.1% dimethyl sulfoxide (DMSO) were used as a negative control as the compounds were dissolved in DMSO. Subsequently, the cells were incubated with 10 µL of an MTT solution (Sigma, St. Louis, MO, USA) for 4 h. After the incubation with MTT solution, 100 µL of a solubilization solution was added to dissolve water-insoluble purple formazan crystals, and the plate was incubated overnight at 37 °C in 5% CO2. The absorbance of the formazan solution was measured using a Synergy H1 hybrid multi-mode microplate reader (BioTek, Winooski, VT, USA) at 570 nm. The experiment was conducted with four replicates, and the relative cell viability (%) of the treated cells was expressed as a percentage relative to the untreated control cells, which were considered to have 100% viability.

The next assay concerns MDCK cells. As for the experimental part: as §1
A further assay has as its system REM134 cells. As for the experimental part: as §1

For `[O-][n+]1cccc2c1C=Cc1cccnc1O2` [OPDOb, oxepino(2,3-b:6,7-b’)dipyridine 1-oxide], the pIC50 in the assay with CMGT071020 cells (CMGT071020, 24 h) is < 3.52; in the assay on CMGT071020 cells (CMGT071020, 48 h), < 3.52; in the assay with MDCK cells (24 h), < 3.52; in the assay with MDCK cells (48 h) it was < 3.52; in the assay on REM134 cells (REM134, 24 h), < 3.52; with REM134 cells (REM134, 48 h), 3.76.
`[O-][n+]1cccc2c1C=Cc1ccncc1O2` [OPDOc, oxepino(3,2-b:7,6-c’)dipyridine 1-oxide]: the pIC50 in the assay with CMGT071020 cells (CMGT071020, 24 h) was < 3.52; in the assay with CMGT071020 cells (CMGT071020, 48 h) it was < 3.52; in the assay on MDCK cells (24 h), < 3.52; in the assay with MDCK cells (48 h), < 3.52; in the assay on REM134 cells (REM134, 24 h), < 3.52; with REM134 cells (REM134, 48 h), < 3.52.

The values above are taken from publication PMC10854894, “A New Benzo[6,7]oxepino[3,2-b] Pyridine Derivative Induces Apoptosis in Canine Mammary Cancer Cell Lines” (Animals : an Open Access Journal from MDPI, 2024).
